Results as given in patent US12337042B2, “Structural optimization method to improve the theranostic performance of peptide receptor-targeted radionuclide therapy for cancers” (University of Iowa Research Foundation, priority 2020, dated 2025).
Read-outs that look alike come from different tables or passages of the source.

Experiments:
[1] = target: T1, SSTR2-positive AR42J cells (Rattus norvegicus, UniProt P30680); assay: ^125I-TOC competitive binding assay in AR42J cells
T1 construct: endogenous in cells; host or cells: AR42J rat pancreatic acinar cells
T1 sequence (P30680 whole entry): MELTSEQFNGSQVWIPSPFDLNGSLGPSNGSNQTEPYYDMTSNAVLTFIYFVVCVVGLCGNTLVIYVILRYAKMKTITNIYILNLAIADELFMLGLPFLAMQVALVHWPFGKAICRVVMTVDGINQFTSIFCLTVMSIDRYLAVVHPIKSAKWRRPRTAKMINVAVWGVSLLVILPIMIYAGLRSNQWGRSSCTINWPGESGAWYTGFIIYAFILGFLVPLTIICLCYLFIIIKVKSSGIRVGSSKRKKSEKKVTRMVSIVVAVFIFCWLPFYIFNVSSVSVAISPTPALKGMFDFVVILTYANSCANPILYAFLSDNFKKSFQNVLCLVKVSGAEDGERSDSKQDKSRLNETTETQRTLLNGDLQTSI
Procedure: ^125I-TOC Competitive Binding Assay
TOC was labeled with iodine-125 (^125I) by conventional chloramine T method as described elsewhere (23). 1.0×10^5 AR42J rat pancreatic acinar cells were plated into poly-D-lysine-coated 24-well plates. […] The cells were then washed twice with ice-cold PBS and lysed with 0.5 N NaOH, and the radioactivity was measured via a gamma counter. The half maximal inhibitory concentration (IC50) was determined using GraphPad Prism V8.0.

[2] = ^212Pb-PSC-PEG2-TOC toxicity studies with escalating doses; assay type: in vivo, CD-1 Elite (SOPF) male mice
Description: FIG. 12A-12F. Dosimetry and toxicities of escalated doses (up to 150 μCi) of ^212Pb—PSC-PEG2-TOC in CD-1 Elite (SOPF) male mice. (A) Body weight change after the injection of ^212Pb-PSC-PEG2-TOC. […] (B) ^212Pb-PSC-PEG2-TOC biodistribution in CD-1 Elite (SOPF) male mice. ^212Pb is used for the study to include the impact of potential demetallation of ^212Pb and redistribution in bone marrow. (C) Estimated renal dose arising from the escalating doses of ^212Pb-PSC-PEG2-TOC based on the biodistribution in CD-1 Elite (SOPF) male mice. Organ level internal dose assessment (OLINDA) V2.1 was used for dose estimation in mice using 30 g mouse voxel phantom model. (D-E) The levels of renal toxicity markers arising from the escalating doses of ^212Pb-PSC-PEG2-TOC assessed by urine neutrophil gelatinase-associated lipocalin (uNGAL; D) at day 1 and day 3 post-administration and blood urea nitrogen (BUN; E) at 3 months post-administration.
^212Pb-PSC-PEG2-TOC Toxicity Studies
Escalating doses (0, 0.37, 1.85, 3.33, and 5.55 MBq or 0, 10, 50, 90, and 150 μCi) of ^212Pb-PSC-PEG2-TOC were administered to tumor-free CD-1 Elite (SOPF) male mice (n=4 for each group). Body weight was measured 2 times a week by 3 weeks post-injection and 1 time a week afterwards. Urine samples were collected (via metabolic case) at day 1 and day 3 post-administration to evaluate acute tubular toxicities in kidneys. […]

[3] = AR42J cells, 2 hours at 37° C., mean ± spread, read-out: IC50, competitive inhibition of ^125I-tyr^3-octreotide (^125I-TOC) binding

Compound	IC50 [1, 3]	also measured
C[C@@H](O)[C@@H]1NC(=O)[C@H](CCCCN)NC(=O)[C@@H](Cc2c[nH]c3ccccc23)NC(=O)[C@H](Cc2ccc(O)cc2)NC(=O)[C@@H](NC(=O)[C@@H](Cc2ccccc2)NC(=O)CCOCCOCCNC(=O)CN2CCN(CC(=O)O)CCN(CC(N)=O)CCN(CC(=O)O)CC2)CSSC[C@@H](C(=O)N[C@H](CO)[C@@H](C)O)NC1=O [PSC-PEG2-TOC]	5.3 ± 1.2 nM	
C[C@@H](O)[C@@H]1NC(=O)[C@H](CCCCN)NC(=O)[C@@H](Cc2c[nH]c3ccccc23)NC(=O)[C@H](Cc2ccc(O)cc2)NC(=O)[C@@H](NC(=O)[C@@H](Cc2ccccc2)NC(=O)CCOCCOCCOCCOCCNC(=O)CN2CCN(CC(=O)O)CCN(CC(N)=O)CCN(CC(=O)O)CC2)CSSC[C@@H](C(=O)N[C@H](CO)[C@@H](C)O)NC1=O [PSC-PEG4-TOC]	9.4 ± 1.3 nM	
C[C@@H](O)[C@@H]1NC(=O)[C@H](CCCCN)NC(=O)[C@@H](Cc2c[nH]c3ccccc23)NC(=O)[C@H](Cc2ccc(O)cc2)NC(=O)[C@@H](NC(=O)[C@@H](Cc2ccccc2)NC(=O)CN2CCN(CC(=O)O)CCN(CC(N)=O)CCN(CC(=O)O)CC2)CSSC[C@@H](C(=O)N[C@H](CO)[C@@H](C)O)NC1=O [PSC-TOC]	6.2 ± 1.1 nM	
C[C@@H](O)[C@@H]1NC(=O)[C@H](CCCCN)NC(=O)[C@@H](Cc2c[nH]c3ccccc23)NC(=O)[C@H](Cc2ccc(O)cc2)NC(=O)[C@@H](NC(=O)[C@H](N)Cc2ccccc2)CSSC[C@@H](C(=O)N[C@H](CO)[C@@H](C)O)NC1=O [TOC, Tyr^3-octreotide, reference compound]		IC50 [1]: 3.1 ± 1.1 nM
C[C@@H](O)[C@@H]1NC(=O)[C@H](CCCCN)NC(=O)[C@@H](Cc2c[nH]c3ccccc23)NC(=O)[C@H](Cc2ccc(O)cc2)NC(=O)[C@@H](NC(=O)[C@@H](Cc2ccccc2)NC(=O)CCOCCOCCNC(=O)CN2CCN(CC(=O)O)CCN(CC(N)=O)CCN(CC(=O)O)CC2)CSSC[C@@H](C(=O)N[C@H](CO)[C@@H](C)O)NC1=O [^212Pb-PSC-PEG2-TOC, metal not drawn]		hematologic toxicity by complete blood count (CBC) ([2]; doses up to 150 μCi, week 1, 2, and 4 post-administration): reversible hematologic toxicity; body weight change after injection ([2]; escalated doses up to 150 μCi, tumor-free mice): After an initial decrease in body weight in first days, the body weight of the treated mice increased gradually
